In patent publication US20240018153A1, “BENZENESULFONAMIDE DERIVATIVES AND USES THEREOF” (2692372 ONTARIO, INC., priority 2020, published 2024):
One block for each compound: values may come before it.

Tests used:
EGFR = EGFR (Homo sapiens (Human), UniProt P00533); test: HTRF KinEASE-TK kinase assay, EGFR; assay type: biochemical; conditions: 3 h preincubation; for remaining activity at 1 µM: 1 μM compound, read-out: % EGFR Remaining activity vs DMSO (1 μM, 3 h); for remaining activity at 10 µM: 10 μM compound, read-out: % EGFR Remaining activity vs DMSO (10 μM, 3 h)
Method: Kinase activity was monitored using a HTRF® KinEASE-TK kit from Cisbio (62TK0PEC). The buffer used was 1× kinase buffer supplemented with 2 mM MnCl2, 5 mM MgCl2, 1 mM TCEP and 100× diluted Supplementary Enzyme Buffer. EGFR was purchased from Promega. […] Reaction with substrate was then initiated by adding biotinylated substrate and ATP. […] After 60 min of incubation, the fluorescence emission was measured at 620 nm and 665 nm. The ratio of Em 665 nm to Em 620 nm was proportional to the amount of substrate phosphorylated by the kinase.
For initial screening, enzymes were pre incubated with compounds at 2 different concentrations (1 and 10 uM final) and 0.5% DMSO.

BTK [1] = target: T1, BTK (Homo sapiens (Human), UniProt Q06187); test: Ramos RA1 cell lysis and immunoassay, phospho-BTK (Y223) inhibition; assay type: cell-based; parameters: key: X: BTK bound and autophosphoration of BTK inhibited in cells; conditions: RAMOS cells
Method: (§1) Ramos RA 1 cells (ATCC) were cultured in RPMI-1640 media (Wisent) supplemented with 10% heat-inactivated FBS and 1% penicillin/streptomycin. Cells were seeded in 6-well plates at 1.71×10^6 cells/well and incubated at 37° C., 5% CO2 for 16 hours. Cells were treated with compound at the indicated concentrations or DMSO alone and incubated at 37° C., 5% CO2 for 24 hours. Cell suspensions were centrifugated at 1,400-1,600 RPM for 5 minutes at room temperature and supernatants were discarded. Cell pellets were resuspended with 1× RIPA buffer (Millipore) and incubated on ice for 15 minutes. Protein lysates were extracted by centrifugating at 20,000 RPM for 20 minutes at 4° C. Proteins were separated and total BTK protein levels were quantified by Simple Western Immunoassay (ProteinSimple) using the 12-230 kDa Jess Separation Module according to the manufacturer's protocol, using a protein concentration of 0.25 μg/μl and antibodies targeting BTK (clone #D3H5, Cell Signalling) and β-Actin (clone #AC-15, Santa Cruz) diluted to 1:400 and 1:10, respectively, where the latter was used as a loading control. An equal ratio of rabbit and mouse HRP-conjugated secondary antibodies was used for detection. BTK protein levels were quantified relative to S-Actin loading levels and subsequently normalized to the DMSO control. Phosphorylated BTK levels were quantified using the Protein Normalization Assay Module for Jess (ProteinSimple) according to the manufacturer's protocol, using a protein concentration of 1.5 μg/μl and an antibody targeting pBTK (Y223) (Cell Signalling) diluted to 1:50. Phosphorylated BTK levels were quantified relative to the Protein Normalization Reagent and subsequently normalized to the DMSO control.

BMX = BMX (Homo sapiens (Human), UniProt P51813); test: HTRF KinEASE-TK kinase assay, BMX; assay type: biochemical; conditions: 3 h preincubation; for remaining activity at 1 µM: 1 uM compound; for remaining activity at 10 µM: 10 uM compound
Method: (§2) Kinase activity was monitored using a HTRF® KinEASE-TK kit from Cisbio (62TK0PEC). […] BMX was purchased from Promega. 0.333 ng/ul BMX (3.03 nM) was preincubated in the absence or presence of inhibitor at room temperature for 3 hours. The reaction with substrate was then initiated by adding biotinylated substrate and ATP. […] Reaction was terminated by adding 31.25 nM SA-XL665 and 100 fold diluted europium labelled antibody (Eu-Ab), diluted in 1× detection buffer that contained EDTA. After 60 min of incubation, the fluorescence emission was measured at 620 nm and 665 nm. The ratio of Em 665 nm to Em 620 nm was proportional to the amount of substrate phosphorylated by the kinase.

FGFR4 = FGFR4 (Homo sapiens (Human), UniProt P22455); test: HTRF KinEASE-TK kinase assay, FGFR4; assay type: biochemical; conditions: for remaining activity at 1 µM: read-out: % FGFR4 Remaining activity vs DMSO (1 μM, 3 h); for remaining activity at 10 µM: read-out: % FGFR4 Remaining activity vs DMSO (10 μM, 3 h); for IC50: dose response
Method: as §2, with “FGFR-4” for “BMX”, “FGFR4 (5.12” for “BMX (3.03”, “Reaction” for “The reaction”, “The reaction” for “Reaction”

BTK [2] = target: T1, BTK; test: HTRF KinEASE-TK kinase assay, BTK; assay type: biochemical; conditions: 3 h preincubation; for remaining activity at 1 µM: 1 μM compound, read-out: % BTK Remaining activity vs DMSO (1 μM, 3 h); for remaining activity at 10 µM: 10 μM compound, read-out: % BTK Remaining activity vs DMSO (10 μM, 3 h)
Method: Kinase activity was monitored using a HTRF® KinEASE-TK kit from Cisbio (62TK0PEC). For BTK, the 1× kinase buffer was supplemented with 10 mM MnCl2, 5 mM MgCl2, 1 uM ATPγS, 1 mM TCEP and 100 fold diluted Supplementary Enzyme Buffer. BTK was purchased from Promega. […] Reaction with substrate was then initiated by adding biotinylated substrate and ATP and the reaction was allowed to proceed for 45 min. […] After 60 min of incubation, the fluorescence emission was measured at 620 nm and 665 nm. The ratio of Em 665 nm to Em 620 nm was proportional to the amount of substrate phosphorylated by the kinase.

BTK [3] = target: T1, BTK; test: Ramos RA1 cell lysis and immunoassay, total BTK degradation; assay type: cell-based; parameters: key to % BTK degradation (RAMOS, 24 h): Y: BTK bound in cells and BTK degradation occurred; concentration or dose not given beside the values; conditions: RAMOS cells
Method: as §1

JAK3 = JAK3 (Homo sapiens (Human), UniProt P52333); test: HTRF KinEASE-TK kinase assay, JAK3; assay type: biochemical; conditions: for remaining activity at 1 µM: read-out: % JAK3 Remaining activity vs DMSO (1 μM, 3 h); for remaining activity at 10 µM: read-out: % JAK3 Remaining activity vs DMSO (10 μM, 3 h); for IC50: dose response
Method: as §2, with “JAK-3” for “BMX”, “0.0133” for “0.333”, “JAK3 (0.21” for “BMX (3.03”, “Reaction” for “The reaction”, “The reaction” for “Reaction”

RIPK2 = RIPK2 (Homo sapiens (Human), UniProt O43353); test: In vitro RIPK2 inhibition; assay type: biochemical; conditions: for remaining activity at 1 µM: read-out: % RIPK2 Remaining activity vs DMSO (1 μM, 3 h); for remaining activity at 10 µM: read-out: % RIPK2 Remaining activity vs DMSO (10 μM, 3 h)
RIPK2, sequence (O43353 whole entry, species assumed): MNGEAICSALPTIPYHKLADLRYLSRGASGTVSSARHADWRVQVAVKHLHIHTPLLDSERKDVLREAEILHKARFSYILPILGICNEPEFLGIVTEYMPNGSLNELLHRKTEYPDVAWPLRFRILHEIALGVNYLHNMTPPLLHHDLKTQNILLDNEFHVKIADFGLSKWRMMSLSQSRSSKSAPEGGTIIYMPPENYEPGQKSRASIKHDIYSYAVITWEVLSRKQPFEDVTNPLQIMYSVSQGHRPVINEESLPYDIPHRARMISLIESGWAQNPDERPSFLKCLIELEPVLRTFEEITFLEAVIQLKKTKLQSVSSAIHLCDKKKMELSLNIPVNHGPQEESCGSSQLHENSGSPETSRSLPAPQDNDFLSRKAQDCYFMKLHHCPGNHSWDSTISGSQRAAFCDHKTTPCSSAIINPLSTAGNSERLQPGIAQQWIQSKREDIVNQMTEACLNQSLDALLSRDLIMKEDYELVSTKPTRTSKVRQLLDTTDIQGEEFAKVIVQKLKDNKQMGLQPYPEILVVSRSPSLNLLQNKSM

FGFR4, sequence (P22455 22-802): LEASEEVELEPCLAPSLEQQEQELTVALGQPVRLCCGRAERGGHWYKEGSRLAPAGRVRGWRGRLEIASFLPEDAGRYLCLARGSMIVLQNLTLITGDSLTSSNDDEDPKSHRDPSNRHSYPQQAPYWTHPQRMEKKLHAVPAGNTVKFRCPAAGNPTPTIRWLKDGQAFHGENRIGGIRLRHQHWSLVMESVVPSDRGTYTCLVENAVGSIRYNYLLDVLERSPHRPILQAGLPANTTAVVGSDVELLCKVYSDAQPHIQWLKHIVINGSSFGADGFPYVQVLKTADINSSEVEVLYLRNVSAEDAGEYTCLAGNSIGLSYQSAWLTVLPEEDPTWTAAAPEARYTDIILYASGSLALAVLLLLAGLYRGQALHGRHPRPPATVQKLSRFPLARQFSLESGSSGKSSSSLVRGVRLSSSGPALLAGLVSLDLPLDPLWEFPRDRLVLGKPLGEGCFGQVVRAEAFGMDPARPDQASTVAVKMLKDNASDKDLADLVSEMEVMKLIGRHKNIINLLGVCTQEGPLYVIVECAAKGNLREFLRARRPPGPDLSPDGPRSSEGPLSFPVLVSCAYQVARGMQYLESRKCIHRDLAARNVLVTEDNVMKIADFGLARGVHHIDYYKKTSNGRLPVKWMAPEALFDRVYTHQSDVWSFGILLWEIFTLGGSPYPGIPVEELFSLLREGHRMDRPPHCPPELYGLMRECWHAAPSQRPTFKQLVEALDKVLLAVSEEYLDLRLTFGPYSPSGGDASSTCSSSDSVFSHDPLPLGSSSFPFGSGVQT
JAK3, sequence (P52333 781-1124): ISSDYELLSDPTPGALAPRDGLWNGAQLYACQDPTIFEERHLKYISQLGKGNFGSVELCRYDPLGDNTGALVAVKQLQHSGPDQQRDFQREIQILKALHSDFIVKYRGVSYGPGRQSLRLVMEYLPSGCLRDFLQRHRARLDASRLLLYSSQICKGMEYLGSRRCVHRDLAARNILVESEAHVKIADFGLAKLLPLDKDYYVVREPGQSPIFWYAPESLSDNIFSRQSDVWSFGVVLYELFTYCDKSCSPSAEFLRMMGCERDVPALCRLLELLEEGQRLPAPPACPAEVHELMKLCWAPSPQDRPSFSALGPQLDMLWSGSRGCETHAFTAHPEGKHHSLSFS
EGFR, sequence (P00533 25-1210): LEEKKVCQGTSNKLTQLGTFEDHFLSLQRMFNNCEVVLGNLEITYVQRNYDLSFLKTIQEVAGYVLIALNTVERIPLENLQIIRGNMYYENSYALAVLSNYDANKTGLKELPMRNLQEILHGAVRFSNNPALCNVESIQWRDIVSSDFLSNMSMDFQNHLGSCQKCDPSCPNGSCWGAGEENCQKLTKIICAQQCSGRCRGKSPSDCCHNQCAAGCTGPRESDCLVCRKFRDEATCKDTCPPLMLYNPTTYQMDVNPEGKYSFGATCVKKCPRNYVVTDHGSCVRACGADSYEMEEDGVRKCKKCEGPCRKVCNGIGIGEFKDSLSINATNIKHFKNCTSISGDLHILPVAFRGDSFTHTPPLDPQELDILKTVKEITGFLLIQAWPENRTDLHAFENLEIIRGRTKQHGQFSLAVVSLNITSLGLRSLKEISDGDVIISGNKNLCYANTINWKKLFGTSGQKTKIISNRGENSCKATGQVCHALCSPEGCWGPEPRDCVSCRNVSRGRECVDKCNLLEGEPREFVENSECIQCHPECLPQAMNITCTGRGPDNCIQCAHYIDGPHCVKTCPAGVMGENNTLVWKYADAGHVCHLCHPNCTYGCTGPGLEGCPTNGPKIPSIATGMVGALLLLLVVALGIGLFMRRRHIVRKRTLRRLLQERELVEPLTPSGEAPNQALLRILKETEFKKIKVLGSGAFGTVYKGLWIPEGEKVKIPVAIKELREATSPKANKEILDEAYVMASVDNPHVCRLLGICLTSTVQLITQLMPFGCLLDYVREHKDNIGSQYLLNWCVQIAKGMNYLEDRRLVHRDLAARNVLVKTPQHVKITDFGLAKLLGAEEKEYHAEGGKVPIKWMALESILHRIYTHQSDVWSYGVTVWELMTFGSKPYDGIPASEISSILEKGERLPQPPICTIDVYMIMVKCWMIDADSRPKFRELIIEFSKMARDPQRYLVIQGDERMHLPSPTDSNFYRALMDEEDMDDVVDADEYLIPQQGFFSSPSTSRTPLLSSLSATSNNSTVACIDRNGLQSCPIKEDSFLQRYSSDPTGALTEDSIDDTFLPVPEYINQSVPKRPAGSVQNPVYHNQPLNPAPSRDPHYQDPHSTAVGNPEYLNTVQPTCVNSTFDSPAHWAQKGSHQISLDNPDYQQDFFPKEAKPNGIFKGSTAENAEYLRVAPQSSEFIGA
BMX, sequence (P51813 whole entry): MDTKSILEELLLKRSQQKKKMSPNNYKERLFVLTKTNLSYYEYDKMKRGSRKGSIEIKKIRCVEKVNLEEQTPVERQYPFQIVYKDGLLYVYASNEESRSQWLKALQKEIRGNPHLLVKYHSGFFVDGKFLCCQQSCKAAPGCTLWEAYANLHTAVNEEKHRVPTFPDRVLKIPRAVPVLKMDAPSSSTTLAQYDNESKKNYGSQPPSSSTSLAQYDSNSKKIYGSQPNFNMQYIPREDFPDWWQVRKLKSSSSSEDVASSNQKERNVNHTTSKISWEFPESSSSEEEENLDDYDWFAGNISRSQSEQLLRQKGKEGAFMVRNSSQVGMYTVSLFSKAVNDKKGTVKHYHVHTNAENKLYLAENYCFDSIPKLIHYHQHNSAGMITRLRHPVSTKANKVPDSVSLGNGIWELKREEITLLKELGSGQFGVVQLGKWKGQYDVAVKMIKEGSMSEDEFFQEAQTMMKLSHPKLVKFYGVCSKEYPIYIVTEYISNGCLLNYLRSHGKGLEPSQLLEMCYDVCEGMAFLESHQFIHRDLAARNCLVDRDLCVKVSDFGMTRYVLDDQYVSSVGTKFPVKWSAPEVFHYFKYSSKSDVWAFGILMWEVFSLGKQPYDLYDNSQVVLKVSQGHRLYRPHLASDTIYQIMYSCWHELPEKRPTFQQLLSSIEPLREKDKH
T1 sequence (Q06187 whole entry): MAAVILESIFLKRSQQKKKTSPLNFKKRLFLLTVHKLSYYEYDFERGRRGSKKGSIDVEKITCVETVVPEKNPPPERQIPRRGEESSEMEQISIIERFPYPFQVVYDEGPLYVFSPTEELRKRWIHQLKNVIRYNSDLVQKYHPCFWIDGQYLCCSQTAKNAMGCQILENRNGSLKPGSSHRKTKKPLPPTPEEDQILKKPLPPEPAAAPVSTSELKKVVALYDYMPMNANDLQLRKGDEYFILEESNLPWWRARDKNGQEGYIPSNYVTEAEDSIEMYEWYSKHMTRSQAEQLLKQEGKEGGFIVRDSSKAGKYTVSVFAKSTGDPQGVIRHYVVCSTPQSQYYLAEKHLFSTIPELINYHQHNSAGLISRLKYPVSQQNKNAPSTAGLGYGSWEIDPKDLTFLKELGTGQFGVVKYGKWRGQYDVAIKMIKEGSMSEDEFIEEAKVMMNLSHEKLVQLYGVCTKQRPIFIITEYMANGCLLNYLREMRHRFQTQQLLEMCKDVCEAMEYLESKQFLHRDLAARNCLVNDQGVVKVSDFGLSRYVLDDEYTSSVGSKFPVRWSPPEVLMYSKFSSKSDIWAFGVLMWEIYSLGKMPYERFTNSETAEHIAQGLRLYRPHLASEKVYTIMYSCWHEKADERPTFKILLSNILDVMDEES

remaining activity at 1 µM (EGFR): > 90%
remaining activity at 10 µM (EGFR): > 90%
remaining activity at 1 µM (BMX): 50 to 90%
remaining activity at 10 µM (BMX): < 50%
remaining activity at 1 µM (FGFR4): 50 to 90%
remaining activity at 10 µM (FGFR4): < 50%
remaining activity at 1 µM (BTK [2]): 50 to 90%
remaining activity at 10 µM (BTK [2]): < 50%
% BTK degradation (RAMOS, 24 h) (BTK [3]): Y
remaining activity at 1 µM (JAK3): > 90%
remaining activity at 10 µM (JAK3): > 90%
remaining activity at 1 µM (RIPK2): < 50%
remaining activity at 10 µM (RIPK2): < 50%
Structure (SMILES): CS(=O)(=O)c1c(F)c(F)c(F)c(F)c1C(=O)n1ccc2c(N)ncnc21 [Compound I-49, (4-amino-7H-pyrrolo[2,3-d]pyrimidin-7-yl)(2,3,4,5-tetrafluoro-6-(methylsulfonyl)phenyl)methanone]

remaining activity at 1 µM (EGFR): 50 to 90%
remaining activity at 10 µM (EGFR): < 50%
pBTK inhibition (RAMOS, 24 h) (BTK [1]; compound concentration 2.5 μM): X
remaining activity at 1 µM (BMX): < 50%
remaining activity at 10 µM (BMX): < 50%
IC50 (FGFR4): < 1000 nM
remaining activity at 1 µM (FGFR4): < 50%
remaining activity at 10 µM (FGFR4): < 50%
remaining activity at 1 µM (BTK [2]): < 50%
remaining activity at 10 µM (BTK [2]): < 50%
IC50 (BTK [2]; dose response, read-out: BTK Inhibition IC50): < 1000 nM
IC50 (JAK3): < 1000 nM
remaining activity at 1 µM (JAK3): < 50%
remaining activity at 10 µM (JAK3): < 50%
Structure (SMILES): COCCOc1ccc(Nc2ncc(F)c(Nc3cccc(NS(=O)(=O)c4c(F)c(F)c(F)c(F)c4C(F)(F)F)c3)n2)cc1 [Compound I-53, 2,3,4,5-tetrafluoro-N-(3-((5-fluoro-2-((4-(2-methoxyethoxy)phenyl)amino)pyrimidin-4-yl)amino)phenyl)-6-(trifluoromethyl)benzenesulfonamide]

The next lines start with the compound.

Structure (SMILES): Nc1ncnc2c1c(-c1ccc(Oc3ccccc3)cc1)nn2[C@@H]1CCCN(C(=O)c2c(F)c(F)c(F)c(F)c2S(N)(=O)=O)C1 [Compound I-35, (R)-2-(3-(4-amino-3-(4-phenoxyphenyl)-1H-pyrazolo[3,4-d]pyrimidin-1-yl)piperidine-1-carbonyl)-3,4,5,6-tetrafluorobenzenesulfonamide]
remaining activity at 1 µM (EGFR): > 90%
remaining activity at 10 µM (EGFR): > 90%
pBTK inhibition (RAMOS, 24 h) (BTK [1]; compound concentration 1 μM): X
remaining activity at 1 µM (BMX): < 50%
remaining activity at 10 µM (BMX): < 50%
remaining activity at 1 µM (FGFR4): 50 to 90%
remaining activity at 10 µM (FGFR4): < 50%
remaining activity at 1 µM (BTK [2]): < 50%
remaining activity at 10 µM (BTK [2]): < 50%
% BTK degradation (RAMOS, 24 h) (BTK [3]): Y
remaining activity at 1 µM (JAK3): > 90%
remaining activity at 10 µM (JAK3): > 90%
remaining activity at 1 µM (RIPK2): > 90%
remaining activity at 10 µM (RIPK2): > 90%

Structure (SMILES): COCCOc1ccc(Nc2ncc(F)c(NCCCNS(=O)(=O)c3c(F)c(F)c(F)c(F)c3C(F)F)n2)cc1 [Compound I-52, 2-(difluoromethyl)-3,4,5,6-tetrafluoro-N-(3-((5-fluoro-2-((4-(2-methoxyethoxy)phenyl)amino)pyrimidin-4-yl)amino)propyl)benzenesulfonamide]
remaining activity at 1 µM (EGFR): > 90%
remaining activity at 10 µM (EGFR): 50 to 90%
pBTK inhibition (RAMOS, 24 h) (BTK [1]; compound concentration 1 μM): X
remaining activity at 1 µM (BMX): < 50%
remaining activity at 10 µM (BMX): < 50%
remaining activity at 1 µM (FGFR4): > 90%
remaining activity at 10 µM (FGFR4): < 50%
remaining activity at 1 µM (BTK [2]): < 50%
remaining activity at 10 µM (BTK [2]): < 50%
IC50 (JAK3): < 1000 nM
remaining activity at 1 µM (JAK3): < 50%
remaining activity at 10 µM (JAK3): < 50%

Structure (SMILES): COCCOc1ccc(Nc2ncc(F)c(Nc3cccc(NS(=O)(=O)c4c(F)c(F)c(F)c(F)c4OC(F)F)c3)n2)cc1 [Compound I-54, 2-(difluoromethoxy)-3,4,5,6-tetrafluoro-N-(3-((5-fluoro-2-((4-(2-methoxyethoxy)phenyl)amino)pyrimidin-4-yl)amino)phenyl)benzenesulfonamide]
remaining activity at 1 µM (EGFR): > 90%
remaining activity at 10 µM (EGFR): 50 to 90%
pBTK inhibition (RAMOS, 24 h) (BTK [1]; compound concentration 5 μM): X
remaining activity at 1 µM (BMX): < 50%
remaining activity at 10 µM (BMX): < 50%
IC50 (FGFR4): < 1000 nM
remaining activity at 1 µM (FGFR4): < 50%
remaining activity at 10 µM (FGFR4): < 50%
remaining activity at 1 µM (BTK [2]): < 50%
remaining activity at 10 µM (BTK [2]): < 50%
IC50 (JAK3): > 1000 nM
remaining activity at 1 µM (JAK3): < 50%
remaining activity at 10 µM (JAK3): < 50%
